Results taken from publication PMC4336331, “Novel Receptor-Derived Cyclopeptides to Treat Heart Failure Caused by Anti-β1-Adrenoceptor Antibodies in a Human-Analogous Rat Model” (PLoS ONE, 2015).
Entries after “also recorded” stand apart in the source; their conditions may differ. Peptide text beside a SMILES is read from it.

Key:
[1] = tested on: brain, liver, heart, kidney, eye, and spleen; assay: Histologic analysis of organs for treatment-related pathologies
From the text: After the hearts all other relevant inner organs (e.g., lung, liver, spleen, kidneys, brain, and eyes) were removed, rinsed with ice-cold PBS, weighed, sectioned, and fixed for further histologic analysis.
Supplementary file pone.0117589.s003.tif: S3 Fig Histologic analysis of various organs (therapy-study, mono-treatment). Representative H&E-stained 2μm cross-sections from various organs analyzed for treatment-related pathologies. Panels (from top to bottom) show organs analyzed from immunised anti-β1EC2-positive untreated, β1EC2-CP-treated, or bisoprolol-treated rats. […] (TIF) Click here for additional data file.

heart rate = assay: Bisoprolol titration pre-experiments, heart rate; format: in vivo, Lewis/CrlBR rats
Description: In brief, n = 76 two months old Lewis/CrlBR rats were either s.c. immunised with 50 μg β1EC2/GST-FP, or n = 38 rats were control-injected with 0.9% NaCl (t = 0). To maintain high anti-β1EC2-titers, all immunised rats were boosted with β1EC2/GST-FP (or 0.9% NaCl) every month over 20 months as previously described. Application of the different linear or cyclic β1-AR peptides (corresponding to the primary AA-sequence of either the first (β1EC1) or the 2nd extra-cellular β1-AR loop (β1EC2)) or the β1-receptor blocker bisoprolol was initiated either 6 weeks after the 1st immunisation (i.e. 15 days after the 1st boost, prevention-study), or 8.5 months after the 1st immunisation (therapy-study).

[2] = tested on: anti-β1EC2-induced β1-AR/cAMP signaling in HEKβ1-cells; assay: FRET cAMP assay (Epac1-camps), blockade of anti-β1EC2-induced signals; format: cell-based, human; conditions: HEKβ1-cells with Epac1-camps FRET-sensor; IgG pre-incubated with peptide (Fig. 1F)
Description: The effects of anti-β1EC2 on β1AR-mediated intracellular cAMP-production were assessed by measuring fluorescence resonance energy transfer (FRET) in HEKβ1-cells transiently transfected with a FRET-sensor for cAMP, Epac1-camps. The sensor consists of the cAMP-binding protein Epac1 flanked by enhanced cyan or yellow fluorescent protein. […] IgG-preparations were added to the cells at 0.13 μg/μl protein concentration; 2μM (-)isoproterenol (Sigma) was used as a reference to determine the maximal cAMP-response. To test the blocking-efficacy of β1EC2-CP on anti-β1EC2-induced adrenergic signaling, the different IgG-preparations were pre-incubated with β1EC2-CP (20 μg/μl) for 6 h at 4 °C; for pharmacological blockade of anti-β1EC2-induced signals we utilised 5.0μM bisoprolol.
(D) Immunostaining experiments with rat anti- β1EC2 (1:100) using HEK-cells stably expressing β1-ARs (HEK β1) or not (wild type; HEK WT). IgG was prepared from anti- β1EC2-positive rats or 0.9% NaCl-injected control rats. Amino-terminal β1AR-specific rabbit anti-bodies (1:250) served as positive controls. […] HEK β1-cells were transfected with the cAMP-sensor Epac1-camps, which reacts to cAMP-binding with a reduction in fluorescence resonance energy transfer (FRET) between its fluorophores cyan (CFP) and yellow fluorescent protein (YFP). […] Representative FRET-ratio traces of 1/5 experiments are shown. Values are given in % of maximal cAMP-response achieved with 0.3μM (-)isoproterenol (Iso).

[3] = tested on: functional β1EC2-specific memory B-cells; assay: Adoptive B-cell transfer and suboptimal immunisation; format: in vivo, Lewis rats; conditions: purified B-cells from immunised treated donors into antigen-naïve recipients, then 12.5μg β1EC2/GST-FP in adjuvans (Fig. 5M)
Description: (d) To detect functional β 1 EC2-specific memory B-cells in vivo, B-cells were first purified from total splenocytes by negative depletion using mAb V65, R73, 10/78 and WT.5 plus magnetic beads (MACS, Miltenyi Biotec, Bergisch-Gladbach, Germany) yielding average purities of 87%. 2.6x10^7 purified B cells were injected in 250 μl PBS i.v. into antigen-naïve syngeneic male Lewis rats. To selectively trigger the transferred memory B-cells, recipient rats were immunised after five days with only 12.5 μg GST/β1EC2-FP in adjuvans per animal. Serum was collected for antibody detection just before as well as three and seven days after immunisation.
Fig 5 Immunology of cyclic β1EC2-peptides: fate of β1EC2-specific T- and B-cells. (A) Titer-course of anti-β1EC2-abs in β1EC2-CP-treated rats during the first 6 months of the prevention-study before and 24h after cyclopeptide-injection. Time-points of antigen-boosts are indicated by (red) lines, time-points of CP-injections by (green) arrows. For better readability error-bars are not shown in the graph. (B) Pre-experiments (antigenic recall-assays) performed with CD4^+ T-cells prepared from spleens of GST/β1EC2 fusion-protein (FP)-immunised untreated (n = 3, black) vs. 0.9%NaCl-injected control rats (n = 3, white). […]

| SMILES | treatment-related organ pathologies / organ-toxicity, in words ([1]; rat, in vivo) | decrease of heart rate (heart rate; oral dose 15 mg/kg/day derived from titration pre-experiments [5/10/15mg]) | heart rate after bisoprolol (heart rate; titration pre-experiments [5/10/15mg], 15mg oral, from 236±10 bpm, n = 5, p<0.005) [bpm] | treatment-related organ pathologies / organ-toxicity, in words ([1]; therapy-study, after 12 months of treatment, H&E-stained sections (S3 Fig.)) | blockade of anti-β1EC2-induced cAMP-signals, in words [2] | anti-β1EC2-abs in serum of recipient rats after B-cell transfer, in words [3] |
| --- | --- | --- | --- | --- | --- | --- |
| CC(C)NCC(O)COc1ccc(COCCOC(C)C)cc1 (stereo not shown) [bisoprolol, reference compound] | Neither treatment strategy caused detectable organ-specific toxicity | at least 10% | 205±9 |  |  |  |
| CC(C)[C@@H]1NC(=O)[C@H](Cc2ccccc2)NC(=O)[C@H](CC(=O)O)NC(=O)[C@H](CS)NC(=O)[C@H](CS)NC(=O)[C@H](CCCCN)NC(=O)[C@@H]2CCCN2C(=O)[C@H](CC(=O)O)NC(=O)[C@H](CC(N)=O)NC(=O)[C@H](Cc2ccc(O)cc2)NC(=O)[C@H](CS)NC(=O)[C@H](CCCNC(=N)N)NC(=O)[C@H](CCCNC(=N)N)NC(=O)[C@H](C)NC(=O)[C@H](CCC(=O)O)NC(=O)[C@H](CC(=O)O)NC(=O)[C@H](CO)NC(=O)[C@H](CCC(=O)O)NC(=O)[C@H](C)NC(=O)[C@H](CCCNC(=N)N)NC(=O)[C@H](C)NC(=O)[C@H](CCC(N)=O)NC(=O)CNC(=O)[C@H](CCCNC(=N)N)NC(=O)[C@H](CC(N)=O)NC(=O)[C@H]([C@@H](C)O)NC1=O [β1EC2-CP] (cyclo(AESDEARRCYNDPKCCDFVTNRGQAR)) |  |  |  | no β1EC2-CP-related pathologies were noted; also recorded: Neither treatment strategy caused detectable organ-specific toxicity | inhibited | did not induce detectable amounts |
| CC(C)[C@H](NC(=O)[C@H](Cc1ccccc1)NC(=O)[C@H](CC(=O)O)NC(=O)[C@H](CS)NC(=O)[C@H](CS)NC(=O)[C@H](CCCCN)NC(=O)[C@@H]1CCCN1C(=O)[C@H](CC(=O)O)NC(=O)[C@H](CC(N)=O)NC(=O)[C@H](Cc1ccc(O)cc1)NC(=O)[C@H](CS)NC(=O)[C@H](CCCNC(=N)N)NC(=O)[C@H](CCCNC(=N)N)NC(=O)[C@H](C)NC(=O)[C@H](CCC(=O)O)NC(=O)[C@H](CC(=O)O)NC(=O)[C@H](CO)NC(=O)[C@H](CCC(=O)O)NC(=O)[C@H](C)NC(=O)[C@H](CCCNC(=N)N)NC(=O)[C@H](C)N)C(=O)N[C@H](C(=O)N[C@@H](CC(N)=O)C(=O)N[C@@H](CCCNC(=N)N)C(=O)NCC(N)=O)[C@@H](C)O [β1EC2-Lin] (H-ARAESDEARRCYNDPKCCDFVTNRG-NH2; N-terminus and C-terminus assumed) |  |  |  |  | inhibited |  |
